Literature values, collected in patent US20090047357A1, “METHOD OF PRODUCING DRUG-CONTAINING WAX MATRIX PARTICLES, EXTRUDER TO BE USED IN THE METHOD AND SUSTAINED-RELEASE PREPARATION CONTAINING CILOSTAZOL” (OTSUKA PHARMACEUTICAL CO., LTD., priority 2005, published 2009).

Cn1c(=O)c2[nH]cnc2n(C)c1=O [theophylline]
water solubility: about 0.6 w/v %
